Where two headings read alike, the source gives them in different places.
Assays:
C4-2 cells = test: Cell-based killing assay of payloads (CellTiter-Glo), C4-2 cells; parameters: species or system human; settings: 5-day incubation; for IC50: Homo sapiens, C4-2, 120 h, average ± SD where replicates; for C4-2 % Kill: at maximum concentration tested (100 − % viable cells)
Protocol: (§1) To test the ability of the disclosed tubulysin payloads to kill human cell lines, an in vitro cytotoxicity assay was performed. In vitro cytotoxicity of the disclosed payloads, as well as reference compounds, were evaluated using the CellTiter-Glo Assay Kit (Promega, Cat #G7573), in which the quantity of ATP present is used to determine the number of viable cells in culture. For the assay, C4-2, HEK293, or T47D cells were seeded at 4000 cells/well on Nunclon white 96-well plates in complete growth medium (DME high glucose:Ham's F12 at 4:1, 10% FBS, 100 units/ml Penicillin, 100 ug/ml streptomycin, 53 ug/ml glutatmine, 10 ug/ml insulin, 220 ng/ml biotin, 12.5 pg/ml T3, 12.5 ug/ml Adenine, 4 ug/ml transferrin for C42 cells; DME high glucose, 10% FBS, 100 units/ml Penicillin, 100 ug/ml streptomycin, 53 ug/ml glutatmine for HEK293; RPMI, 10% FBS, 100 units/ml Penicillin, 100 ug/ml streptomycin, 53 ug/ml glutatmine, 10 ug/ml insulin, 10 mM HEPEs, 200 nM Sodium Pyruvate for T47D cells) and grown overnight at 37° C. in 5% CO2. For cell viability curves, 1:3 serially diluted payloads were added to the cells at final concentrations ranging from 100 nM to […], including a no treatment control group, and were then incubated for 5 days. After the 5-day incubation, cells were incubated at room temperature with 100 μL of CellTiter-Glo reagents for 10 minutes. Relative luminescence units (RLU) were determined on a Victor plate reader (PerkinElmer). The IC50 values were determined from a four-parameter logistic equation over a 10-point response curve (GraphPad Prism). All IC50 values are expressed in molar (M) concentration. The percent cell killing (% kill) at the maximum concentration tested was estimated from the following formula (100−% viable cells). Averages±standard deviation (SD) are included where replicate experiments were performed.

HCT-15 cells = test: Cytotoxicity in panel of MDR cell lines, HCT-15 (72 h and 144 h); assay type: cell-based, human; settings: for IC50: Homo sapiens
Protocol: as §1
(§2) To further test the ability of the disclosed tubulysin payloads, a cytotoxicity assay was performed using a panel of multidrug resistant (MDR) cell lines. In vitro cytotoxicity of the disclosed payloads as well as reference compounds were similarly evaluated as described above except using HCT-15 cells, a colorectal carcinoma cell line; H69AR, a doxorubicin resistant MDR derivative of the small cell lung cancer carcinoma cell line NCI-H69; MES-SA/MX2, a mitoxantrone resistant MDR derivative of the uterine sarcoma cell line MES-SA; and HL60/MX2, a mitoxantrone resistant MDR derivative of the acute promyelocytic leukemia cell line HL60. In these assays, cytotoxicity was evaluated in normal growth media (RPMI, 10% FBS, 100 units/ml Penicillin, 100 ug/ml streptomycin, and 53 ug/ml glutatmine for HCT-15 and HL60/MX2; RPMI, 20% FBS, 100 units/ml Penicillin, 100 ug/ml streptomycin, and 53 ug/ml glutatmine for H69-AR; Waymouths's:McCoy's (1:1), 10% FBS, 100 units/ml Penicillin, 100 ug/ml streptomycin, and 53 ug/ml glutatmine for MES-SA/MX2) with 1000 cells per well following 72 h and 144 h incubation with payloads.

H69AR cells = test: Cytotoxicity in panel of MDR cell lines, H69AR (72 h and 144 h); assay type: cell-based, human; settings: for IC50: Homo sapiens
Protocol: as §1, §2

HCT15 cells = test: cells; assay type: cell-based, human; settings: HCT15 cells; for HCT-15 + verapamil % Kill / HCT-15 % Kill: maximum % cell killing
Protocol: as §1
In vitro cytotoxicity of the disclosed payloads as well as reference compounds were evaluated similarly as described above except using 1000 HCT15 cells, a colorectal carcinoma cell line, in growth medium (RPMI, 10% FBS, 100 units/ml Penicillin, 100 ug/ml streptomycin, 53 ug/ml glutatmine) with or without 5 ug/mL of Verapamil.

MES-SA/MX2 cells = test: Cytotoxicity in panel of MDR cell lines, MES-SA/MX2 (72 h and 144 h); assay type: cell-based, human; settings: for IC50: Homo sapiens
Protocol: as §1, §2

HL60/MX2 cells = test: Cytotoxicity in panel of MDR cell lines, HL60/MX2 (72 h and 144 h); assay type: cell-based, human; settings: for IC50: Homo sapiens
Protocol: as §1, §2

[1] = 72 h incubation, read-out: HCT-15 IC50 72 h
[2] = 144 h incubation, read-out: HCT-15 IC50 144 h
[3] = 72 h incubation, read-out: H69AR IC50 72 h
[4] = 144 h incubation, read-out: H69AR IC50 144 h
[5] = with 5 ug/mL Verapamil, read-out: HCT-15 + verapamil IC50
[6] = Homo sapiens, HCT-15, without Verapamil, read-out: HCT-15 IC50
[7] = with 5 ug/mL Verapamil, read-out: HCT-15 + verapamil IC50 (value in brackets)
[8] = Homo sapiens, HCT-15, without Verapamil, read-out: HCT-15 IC50 (value in brackets)

CCCCCCN(C(=O)[C@@H](NC(=O)[C@H]1CCCCN1C)[C@@H](C)CC)[C@H](C[C@@H](OC(C)=O)c1nc(C(=O)N[C@@H](Cc2ccc(F)cc2)C[C@H](C)C(=O)O)cs1)C(C)C [IVa, (2S,4R)-4-(2-((1R,3R)-1-Acetoxy-3-((2S,3S)—N-hexyl-3-methyl-2-((R)-1-methylpiperidine-2-carboxamido)pentanamido)-4-methylpentyl)thiazole-4-carboxamido)-5-(4-fluorophenyl)-2-methylpentanoic acid]
IC50 (C4-2 cells): 0.0653 nM
C4-2 % Kill (C4-2 cells): 95.2%
HCT-15 % Kill 72 h (HCT-15 cells; 72 h incubation): 97.8%
HCT-15 % Kill 144 h (HCT-15 cells; 144 h incubation): 99.6%
IC50 (HCT-15 cells; [1]): 0.166 nM
IC50 (HCT-15 cells; [2]): 0.318 nM
H69AR % Kill 72 h (H69AR cells; 72 h incubation): 96.1%
H69AR % Kill 144 h (H69AR cells; 144 h incubation): 99.3%
IC50 (H69AR cells; [3]): 0.749 nM
IC50 (H69AR cells; [4]): 1.38 nM

CC[C@H](C)[C@H](NC(=O)[C@H]1CCCCN1C)C(=O)N(CCCCc1cn(CCCC(=O)O)nn1)[C@H](C[C@@H](OC(C)=O)c1nc(C(=O)N[C@@H](Cc2ccc(N)cc2)CC(C)(C)C(=O)O)cs1)C(C)C [IVn, (S)-4-(2-((1R,3R)-1-Acetoxy-3-((2S,3S)—N-(4-(1-(3-carboxypropyl)-1H-1,2,3-triazol-4-yl)butyl)-3-methyl-2-((R)-1-methylpiperidine-2-carboxamido)pentanamido)-4-methylpentyl)thiazole-4-carboxamido)-5-(4-aminophenyl)-2,2-dimethylpentanoic acid]
IC50 (C4-2 cells): > 100 nM
C4-2 % Kill (C4-2 cells): 30.2%
HCT-15 + verapamil % Kill (HCT15 cells; with 5 ug/mL Verapamil): 72.4%
IC50 (HCT15 cells; [5]): > 30 nM
HCT-15 % Kill (HCT15 cells; without Verapamil): 30.9%
IC50 (HCT15 cells; [6]): > 30 nM

CCCCCCN(C(=O)[C@@H](NC(=O)[C@H]1CCCCN1C)[C@@H](C)CC)[C@H](C[C@@H](OC(C)=O)c1nc(C(=O)N[C@H](Cc2ccc(N)c(F)c2)CC(C)(C)C(=O)O)cs1)C(C)C [IVvA, 4-({2-[(1R,3R)-1-(Acetyloxy)-3-[(2S,3S)—N-hexyl-3-methyl-2-{[(2R)-1-methylpiperidin-2-yl]formamido}pentanamido]-4-methylpentyl]-1,3-thiazol-4-yl}formamido)-5-(4-amino-3-fluorophenyl)-2,2-dimethylpentanoic acid]
IC50 (C4-2 cells): 10.9 nM
C4-2 % Kill (C4-2 cells): 96.7%
HCT-15 + verapamil % Kill (HCT15 cells; with 5 ug/mL Verapamil): 97.1%
IC50 (HCT15 cells; [5]): 1.97 nM
HCT-15 % Kill (HCT15 cells; without Verapamil): 99.2%
IC50 (HCT15 cells; [6]): 5.27 nM

CCCCCCN(C(=O)[C@@H](NC(=O)[C@H]1CCCCN1C)[C@@H](C)CC)[C@H](C[C@@H](OC(C)=O)c1nc(C(=O)N[C@@H](Cc2ccc(O)c(N)c2)CC(C)(C)C(=O)O)cs1)C(C)C [IVw, (S)-4-(2-((1R,3R)-1-Acetoxy-3-((2S,3S)—N-hexyl-3-methyl-2-((R)-1-methylpiperidine-2-carboxamido)pentanamido)-4-methylpentyl)thiazole-4-carboxamido)-5-(3-amino-4-hydroxyphenyl)-2,2-dimethylpentanoic acid]
IC50 (C4-2 cells): > 100 nM
C4-2 % Kill (C4-2 cells): 27.9%
HCT-15 + verapamil % Kill (HCT15 cells; with 5 ug/mL Verapamil): 98.3%
IC50 (HCT15 cells; [5]): 4.49 nM
HCT-15 % Kill (HCT15 cells; without Verapamil): 95.9%
IC50 (HCT15 cells; [6]): 9.73 nM

C#CCCCON(C(=O)[C@@H](NC(=O)[C@H]1CCCCN1C)[C@@H](C)CC)[C@H](C[C@@H](OC(C)=O)c1nc(C(=O)N[C@@H](Cc2ccc(O)cc2)CC(C)(C)C(=O)O)cs1)C(C)C [IX, (4S)-4-({2-[(1R,3R)-1-(Acetyloxy)-4-methyl-3-[(2S,3S)-3-methyl-2-{[(2R)-1-methylpiperidin-2-yl]formamido}-N-(pent-4-yn-1-yloxy)pentanamido]pentyl]-1,3-thiazol-4-yl}formamido)-5-(4-hydroxyphenyl)-2,2-dimethylpentanoic acid]
IC50 (C4-2 cells): 0.054 nM
IC50 (HCT15 cells; [7]): 0.162 nM
IC50 (HCT15 cells; [8]): 0.171 nM

CCCCCCON(C(=O)[C@@H](NC(=O)[C@H]1CCCCN1C)[C@@H](C)CC)[C@H](C[C@@H](OC(=O)NC)c1nc(C(=O)N[C@@H](Cc2ccc(O)cc2)C[C@H](C)C(=O)O)cs1)C(C)C [VIa, (2S,4R)-5-(4-Hydroxyphenyl)-4-(2-((5R,7R)-7-isopropyl-8-((2S,3S)-3-methyl-2-((R)-1-methylpiperidine-2-carboxamido)pentanoyl)-3-oxo-4,9-dioxa-2,8-diazapentadecan-5-yl)thiazole-4-carboxamido)-2-methylpentanoic acid]
IC50 (C4-2 cells): 1.86 nM
C4-2 % Kill (C4-2 cells): 94.1%
HCT-15 + verapamil % Kill (HCT15 cells; with 5 ug/mL Verapamil): 98.4 ± 0.7%
IC50 (HCT15 cells; [5]): 0.255 nM
HCT-15 % Kill (HCT15 cells; without Verapamil): 97 ± 1.9%
IC50 (HCT15 cells; [6]): 5.8 nM
HCT-15 % Kill 72 h (HCT-15 cells; 72 h incubation): 94%
HCT-15 % Kill 144 h (HCT-15 cells; 144 h incubation): 98.9%
IC50 (HCT-15 cells; [1]): 5.42 nM
IC50 (HCT-15 cells; [2]): 7.17 nM
H69AR % Kill 72 h (H69AR cells; 72 h incubation): 83.5%
H69AR % Kill 144 h (H69AR cells; 144 h incubation): 91.6%
IC50 (H69AR cells; [3]): 16 nM
IC50 (H69AR cells; [4]): 80.1 nM

CCCCCCON(C(=O)[C@@H](NC(=O)[C@H]1CCCCN1C)[C@@H](C)CC)[C@H](C[C@@H](OC(=O)NCCC)c1nc(C(=O)N[C@@H](Cc2ccc(O)cc2)C[C@H](C)C(=O)O)cs1)C(C)C [VIc, (2S,4R)-5-(4-Hydroxyphenyl)-4-(2-((7R,9R)-9-isopropyl-10-((2S,3S)-3-methyl-2-((R)-1-methylpiperidine-2-carboxamido)pentanoyl)-5-oxo-6,11-dioxa-4,10-diazaheptadecan-7-yl)thiazole-4-carboxamido)-2-methylpentanoic acid]
IC50 (C4-2 cells): 1.33 nM
C4-2 % Kill (C4-2 cells): 95.5 ± 1.8%
HCT-15 + verapamil % Kill (HCT15 cells; with 5 ug/mL Verapamil): 98.8%
IC50 (HCT15 cells; [5]): 0.286 nM
HCT-15 % Kill (HCT15 cells; without Verapamil): 94%
IC50 (HCT15 cells; [6]): 13.2 nM

CCCCCON(C(=O)[C@@H](NC(=O)[C@H]1CCCCN1C)[C@@H](C)CC)[C@H](C[C@@H](OC(C)=O)c1nc(C(=O)N[C@@H](Cc2ccc(O)cc2)CC(C)(C)C(=O)O)cs1)C(C)C [X, (4S)-4-({2-[(1R,3R)-1-(Acetyloxy)-4-methyl-3-[(2S,3S)-3-methyl-2-{[(2R)-1-methylpiperidin-2-yl]formamido}-N-(pentyloxy)pentanamido]pentyl]-1,3-thiazol-4-yl}formamido)-5-(4-hydroxyphenyl)-2,2-dimethylpentanoic acid]
IC50 (C4-2 cells): 0.06 nM
IC50 (HCT15 cells; [7]): 0.116 nM
IC50 (HCT15 cells; [8]): 0.097 nM

CCCC(=O)OCN(C(=O)[C@@H](NC(=O)[C@H]1CCCCN1C)[C@@H](C)CC)[C@H](C[C@@H](OC(C)=O)c1nc(C(=O)N[C@@H](Cc2ccc(O)cc2)C[C@H](C)C(=O)O)cs1)C(C)C [reference compound]
IC50 (C4-2 cells): 0.109 nM
C4-2 % Kill (C4-2 cells): 96.4%
HCT-15 + verapamil % Kill (HCT15 cells; with 5 ug/mL Verapamil): 99.1%
IC50 (HCT15 cells; [5]): 0.128 nM
HCT-15 % Kill (HCT15 cells; without Verapamil): 99.1%
IC50 (HCT15 cells; [6]): 0.509 nM
MES-SA/MX2 % Kill 72 h (MES-SA/MX2 cells; 72 h incubation): 98.6%
MES-SA/MX2 % Kill 144 h (MES-SA/MX2 cells; 144 h incubation): 99.9%
IC50 (MES-SA/MX2 cells; 72 h incubation, read-out: MES-SA/MX2 IC50 72 h): 0.573 nM
IC50 (MES-SA/MX2 cells; 144 h incubation, read-out: MES-SA/MX2 IC50 144 h): 1.33 nM
HL60/MX2 % Kill 72 h (HL60/MX2 cells; 72 h incubation): 98%
HL60/MX2 % Kill 144 h (HL60/MX2 cells; 144 h incubation): 100%
IC50 (HL60/MX2 cells; 72 h incubation, read-out: HL60/MX2 IC50 72 h): < 0.015 nM
IC50 (HL60/MX2 cells; 144 h incubation, read-out: HL60/MX2 IC50 144 h): < 0.015 nM

From US12144864B2, “Tubulysins and protein-tubulysin conjugates” (Regeneron Pharmaceuticals, Inc., priority 2018, dated 2024)
